These results are taken from PMC8120209, “Longitudinal evaluation of a novel BChE PET tracer as an early in vivo biomarker in the brain of a mouse model for Alzheimer disease” (Theranostics, 2021).

Data set [1] deals with T1, D3(h) (Homo sapiens, UniProt P35462).
T1 construct: gene DRD3
In words: biochemical. Further details: Eurofins SafetyScreen44 radioligand displacement, inhibition of control specific binding. The following applies: read-out: % Inhibition of Control Specific Binding, Mean.

In data set [2] the target is T2, V1a(h) (Homo sapiens, UniProt P37288).
T2 construct: gene AVPR1A
In words: biochemical. Details: Eurofins SafetyScreen44 radioligand displacement, inhibition of control specific binding. The following applies: read-out: % Inhibition of Control Specific Binding, Mean.

In data set [3] the target is T3, µ-opioid receptor (Rattus norvegicus, UniProt P33535).
T3 construct: gene Oprm1; rat cortex homogenates
In words: [3H]DAMGO radioligand displacement in rat cortex homogenates. The data set is classed as binding. Background: Displacement assays read how much labelled ligand stays bound in the presence of the test substance.

The target of data set [4] is T4, Potassium Channel hERG (human) (Homo sapiens, UniProt Q12809).
T4 construct: gene KCNH2
In words: in vitro. Details: Eurofins SafetyScreen44 radioligand displacement, inhibition of control specific binding. The following applies: read-out: % Inhibition of Control Specific Binding, Mean.

pKi: −log10 of the molar value.

T2 sequence (P37288 whole entry): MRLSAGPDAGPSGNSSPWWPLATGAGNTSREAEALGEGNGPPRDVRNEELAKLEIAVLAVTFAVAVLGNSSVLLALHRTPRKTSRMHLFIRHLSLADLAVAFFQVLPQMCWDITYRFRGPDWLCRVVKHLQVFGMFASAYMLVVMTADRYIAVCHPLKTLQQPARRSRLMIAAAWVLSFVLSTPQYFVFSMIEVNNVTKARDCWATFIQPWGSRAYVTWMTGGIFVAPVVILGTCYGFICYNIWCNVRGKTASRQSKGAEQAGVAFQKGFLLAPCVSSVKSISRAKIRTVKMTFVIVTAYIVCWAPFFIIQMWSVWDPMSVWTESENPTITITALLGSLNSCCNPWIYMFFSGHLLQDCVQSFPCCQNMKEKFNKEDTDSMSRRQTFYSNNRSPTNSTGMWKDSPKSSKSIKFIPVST
T3 sequence (P33535 whole entry): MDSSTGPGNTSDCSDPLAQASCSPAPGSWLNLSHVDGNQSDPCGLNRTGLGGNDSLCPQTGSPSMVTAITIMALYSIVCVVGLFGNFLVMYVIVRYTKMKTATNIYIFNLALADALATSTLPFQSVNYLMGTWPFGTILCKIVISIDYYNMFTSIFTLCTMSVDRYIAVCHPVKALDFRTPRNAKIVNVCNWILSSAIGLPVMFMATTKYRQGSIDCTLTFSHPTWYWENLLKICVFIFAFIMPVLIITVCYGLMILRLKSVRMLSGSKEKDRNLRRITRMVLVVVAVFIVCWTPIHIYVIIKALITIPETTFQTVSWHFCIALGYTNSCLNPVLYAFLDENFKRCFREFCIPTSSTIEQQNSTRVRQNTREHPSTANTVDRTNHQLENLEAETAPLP
T4 sequence (Q12809 whole entry): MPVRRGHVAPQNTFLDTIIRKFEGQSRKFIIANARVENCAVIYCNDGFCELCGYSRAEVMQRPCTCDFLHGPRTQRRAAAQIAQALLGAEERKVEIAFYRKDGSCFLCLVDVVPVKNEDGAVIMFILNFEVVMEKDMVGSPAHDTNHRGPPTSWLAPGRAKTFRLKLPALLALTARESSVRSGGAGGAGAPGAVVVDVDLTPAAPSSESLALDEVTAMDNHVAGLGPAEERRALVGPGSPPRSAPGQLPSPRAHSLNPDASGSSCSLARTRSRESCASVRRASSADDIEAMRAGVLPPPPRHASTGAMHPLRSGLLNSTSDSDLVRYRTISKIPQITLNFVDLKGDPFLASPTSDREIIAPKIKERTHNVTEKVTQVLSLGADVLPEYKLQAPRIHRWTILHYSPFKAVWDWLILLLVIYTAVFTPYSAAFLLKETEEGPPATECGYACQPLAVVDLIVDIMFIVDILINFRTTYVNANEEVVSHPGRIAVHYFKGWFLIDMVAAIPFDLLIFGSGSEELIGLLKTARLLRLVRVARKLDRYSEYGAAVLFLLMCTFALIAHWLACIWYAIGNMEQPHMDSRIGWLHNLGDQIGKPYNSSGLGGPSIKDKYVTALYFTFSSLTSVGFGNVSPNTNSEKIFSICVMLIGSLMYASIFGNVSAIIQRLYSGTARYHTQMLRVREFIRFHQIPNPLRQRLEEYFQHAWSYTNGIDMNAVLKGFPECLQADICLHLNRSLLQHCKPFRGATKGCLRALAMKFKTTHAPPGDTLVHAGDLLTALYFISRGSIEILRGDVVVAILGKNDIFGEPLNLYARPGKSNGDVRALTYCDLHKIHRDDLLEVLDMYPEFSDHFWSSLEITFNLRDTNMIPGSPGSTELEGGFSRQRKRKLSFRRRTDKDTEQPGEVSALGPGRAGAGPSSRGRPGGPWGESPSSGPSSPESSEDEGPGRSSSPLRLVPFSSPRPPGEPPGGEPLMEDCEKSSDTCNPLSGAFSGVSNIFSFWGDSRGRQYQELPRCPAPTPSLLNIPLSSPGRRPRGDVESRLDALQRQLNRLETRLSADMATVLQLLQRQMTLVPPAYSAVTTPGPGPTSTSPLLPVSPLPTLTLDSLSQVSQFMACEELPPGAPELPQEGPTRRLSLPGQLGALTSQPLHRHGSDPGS
T1 sequence (P35462 whole entry): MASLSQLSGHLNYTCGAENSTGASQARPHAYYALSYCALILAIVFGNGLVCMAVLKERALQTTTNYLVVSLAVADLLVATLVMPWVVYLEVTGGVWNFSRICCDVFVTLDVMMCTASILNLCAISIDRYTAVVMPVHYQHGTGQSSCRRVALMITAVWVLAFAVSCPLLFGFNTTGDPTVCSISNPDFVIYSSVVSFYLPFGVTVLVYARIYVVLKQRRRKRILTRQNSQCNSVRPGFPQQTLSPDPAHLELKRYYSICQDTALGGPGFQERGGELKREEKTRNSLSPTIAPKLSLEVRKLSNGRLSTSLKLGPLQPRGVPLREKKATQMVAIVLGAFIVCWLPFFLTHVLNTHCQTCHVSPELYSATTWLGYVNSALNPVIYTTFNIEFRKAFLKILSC

A word on the inhibition: it is the percentage by which the read-out fell short of the control. For orientation: pKi means the Ki on a negative log10 scale, so that one unit is a factor of ten. Read a low pKi as a large Ki. For `COCCN(CC1CCCN(Cc2ccccc2)C1)S(=O)(=O)c1ccc2ccccc2c1` (racemic) [compound 4, (±)N-((1-benzylpiperidin-3-yl)methyl)-N-(2-methoxyethyl)naphthalene-2-sulfonamide], the inhibition at 10 µM in data set [1] turned out to be 38.4%; in data set [2], 33.8%; in data set [4] it was 84.8%. In data set [3], this molecule had a pKi of 5.74.
